Earlier results in patent US9402788B2, “Manufacture of multiple minicapsules” (Sigmoid Pharma Ltd., priority 2007, dated 2016).
Where a name gives a salt, the structure may show the parent alone.

Key:
[1] = after extrusion with EC/HM polymers; HPLC
[2] = HME film, clotrimazole 10% w/w

## CC(C)Cc1ccc(C(C)C(=O)O)cc1 (centres unmarked) [ibuprofen]
[1]
  ibuprofen amount remained after extrusion: 98.9%

## CC(C)NCC(O)COc1cccc2ccccc12 (centres unmarked) [propranolol HCl]
other
  aqueous solubility: 50 mg/mL

## Cn1c(=O)c2[nH]cnc2n(C)c1=O.O [theophylline monohydrate]
other
  aqueous solubility: 8.33 mg/mL

## Clc1ccccc1C(c1ccccc1)(c1ccccc1)n1ccnc1 [clotrimazole]
[2]
  duration of prolonged release: 10 h
  duration of zero-order release: 6 h
